In paper PMC10526274, “Epithelial-Immune Cell Crosstalk Determines the Activation of Immune Cells In Vitro by the Human Cathelicidin LL-37 at Low Physiological Concentrations” (Biomolecules, 2023):
Several values for one entry are separate records, joined by “and”; a condition that tells them apart may be missing. Equal values may be shown once.

System: Caco-2/monocytes co-culture
Assay: Multiplex xMAP cytokine levels, Caco-2/monocytes co-culture stimulated with LL-37
Assay type: cell-based, human
Details: monocytes/Caco-2 co-culture, 1 µM LL-37, 24 h, n=2
Experimental: Caco-2 cell line (ATCC HTB-37) was cultured in a humidified CO2-incubator (5% CO2, 37 °C) in the complete DMEM/F12 (1:1) medium (Gibco, Waltham, MA, USA) containing 10% fetal bovine serum (FBS, Gibco) and 1X antibiotic–antimycotic solution (Gibco). To stabilize the cell phenotype, Caco-2 cells have been subcultivated three times before seeding on the filter supports. Then, Caco-2 cells were seeded at a density of 2 × 10^5 cells/cm^2 onto 24-well Millicell cell culture inserts (PC, 0.4-μm pore size, 0.6 cm^2 surface area, cat. #PIHP01250) (Millipore, Burlington, MA, USA), precoated with 0.2% bovine gelatin (Sigma-Aldrich, Saint Louis, MO, USA). After seeding, Caco-2 cells were grown in the same complete medium with re-feeding every 2–3 days until polarization of the monolayer occurred. The functional polarity of the monolayers was developed when transepithelial electrical resistance (TEER) between the apical and basolateral surfaces of the monolayers reached […] as measured by the electrical resistance system Millicell-ERS Voltohmmeter (Millipore, Burlington, MA, USA). Grown cell monolayers were used in transport and cytokine production experiments between the 21st and 29th days.
Peripheral blood mononuclear cells (PBMCs) from a healthy donor were purchased from the American Type Culture Collection (ATCC PCS-800-011). Blood monocytes were isolated from PBMCs by plastic adhesion. Mature monocyte-derived dendritic cells (moDCs) were generated in vitro from peripheral blood monocytes, according to Nair et al.. Briefly, monocytes were cultured in a humidified CO2-incubator (5% CO2, 37 °C) in the complete RPMI-1640 medium (Gibco) with 10% FBS, antibiotics, and supplemented with a cytokine cocktail containing 500 U/mL rhIL-4 and 800 U/mL rhGM-CSF (both Sci-Store, Moscow, Russia). On the third day, the medium was replaced by the same fresh medium with FBS, antibiotics, and the cytokine cocktail. Induction of maturation of the immature monocyte-derived dendritic cells was performed on the 5th day by replacing the medium with the complete RPMI-1640 medium (Gibco) with 10% FBS and antibiotics, supplemented with a cytokine cocktail containing 500 U/mL rhIL-4, 800 U/mL rhGM-CSF (both Sci-Store, Moscow, Russia), and 100 U/mL rhTNF-α (Sigma-Aldrich), and subjected to subsequent incubation of the culture for 4 more days.
Primary blood monocytes, moDCs, and NKT cells were seeded in 600 µL of complete RPMI-1640 with 10% Human AB serum (Capricorn Scientific, Ebsdorfergrund, Germany) and supplemented with 1X antibiotic–antimycotic solution into the wells of 24-well plates at a density of 3–7 × 10^5 cells/well 24 h before the experiment. Then, 24 h later, the medium in each well was replaced by the same medium with 1 µM of LL-37 for the sample wells or fresh medium alone for the control wells, and the permeable inserts with the Caco-2 monolayer with TEER > 400 Ω × cm^2, containing 400 μL of the complete medium in their apical chamber, were immediately placed into the appropriate wells. Also, inserts with the Caco-2 monolayer were placed in cell-free wells of 24-well plates in the same complete RPMI-1640 medium with or without 1 µM of LL-37 as controls. Cells were kept in a CO2-incubator (5% CO2, 37 °C) for another 24 h. Then, culture medium from each well was collected, centrifuged, and frozen at −70 °C.
To quantitatively evaluate a broad spectrum of analytes secreted by human cell cultures at the protein level, multiplex xMAP technology was used. […]

“LL-37: the only human cathelicidin, host defense antimicrobial peptide of 37 a.a. residues, produced by solid-phase peptide synthesis” was tested, and the IL-2 level (control 1.07) was 1.07 pg/mL, the FLT-3L level (control 1.18) was 1.37 pg/mL and the IFNg level (control 1.33) was 2.28 pg/mL. It also gave an IL-15 level (control 1.67) of 2.58 pg/mL, an IL-18 level (control 3.28) of 2.42 pg/mL and a TGF-a level (control 3.5) of 3.88 pg/mL. For the same substance, the GM-CSF level (control 3.75) was 18.58 pg/mL, the IL-4 level (control 6.54) was 8.01 pg/mL and the IL-9 level (control 6.65) was 8.94 pg/mL. The EGF level (control 8.06) was 10.26 pg/mL, the IFNa2 level (control 11.65) was 13.12 pg/mL and the IL-10 level (control 14.79, p = 0.0007) was 57.4 pg/mL and 57.47 pg/mL. For the same substance, the TNFb level (control 21.66, p = 0.015) was 30.56 pg/mL, the IL-1a level (control 22.02) was 53.04 pg/mL and the Fractalkine level (control 22.95) was 31.4 pg/mL. The MIP-1a level (control 27.72, p = 0.11) was 3622 pg/mL, the IL-1b level (control 29.14, p = 0.0072) was 104 pg/mL and 104.8 pg/mL and the “IL-12 (p40) level” value (control 34.49) was 56.57 pg/mL. For the same substance, the M-GSF level (control 35.52) was 157.86 pg/mL, the IL-1RA level (control 42.52) was 108.8 pg/mL and the IL-13 level (control 42.56) was 52.71 pg/mL. The FGF-2 level (control 48.6) was 52.5 pg/mL, the IL-22 level (control 48.87, p = 0.029) was 71 pg/mL and 71.9 pg/mL and the MIP-1b level (control 49.37, p = 0.017) was >3455↑ pg/ml. The TNFa level (control 87.19, p = 0.019) was 306 pg/mL and 306.44 pg/mL, the IL-27 level (control 88.48) was 119.16 pg/mL and the sCD40L level (control 92.05) was 88.6 pg/mL. The G-CSF level (control 181.87, p = 0.012) was 1150 pg/mL, the IP-10 level (control 191.78) was 3346 pg/mL and the PDGF-AA level (control 243.05) was 189.29 pg/mL. The MIG level (control 306.48, p = 0.0018) was 959 pg/mL and 959.23 pg/mL, the PDGF-AB/BB level (control 692.27) was 713.51 pg/mL and the MCP-3 level (control 707.64) was 4706 pg/mL. For the same substance, the VEGFa level (control 1586) was 2190 pg/mL, the IL-6 level (control 2266) was 5678 pg/mL and the MDC level (control 4385) was 1264 pg/mL. For the same substance, the GROa level (control 4827) was 4862 pg/mL, the MCP-1 level (control 12186) was 5364 pg/mL and the IL-8 level (control 15625) was 19839 pg/mL. The IL-7 level (control <0.30) was <0.30↓ pg/ml, the IL-5 level (control <0.35) was <0.35↓ pg/ml and the IL-3 level (control <0.55) was <0.55↓ pg/ml. The RANTES level (control <0.64) was 729.59 pg/mL, the IL-17A level (control <0.70) was 2.63 pg/mL and the “IL-12 (p70) level” value (control <1.71) was 2.3 pg/mL. For the same substance, the Eotaxin level (control <2.91) was <2.91↓ pg/ml, the IL-17F level (control <12.19) was <12.19↓ pg/ml and the IL-17E/IL-25 level (control <19.43) was <19.43↓ pg/ml.
